Data taken from paper PMC12596933 (Chembiochem, 2025).

Key:
HL-60 cells = test: Cell surface fucosylation, flow cytometry with lectin AAL staining; assay type: cell-based; conditions: 4 to 500 μM, 3 days, normalized to DMSO as 100%
FUT6 = conditions: read-out: Km as donor for FUT6; cited from earlier work
FUT8 = conditions: read-out: Km as donor for FUT8; cited from earlier work
[1] = target: T1, FKP (bacterial L-fucokinase/GDP-fucose pyrophosphorylase) (Bacteroides fragilis, UniProt Q58T34); test: Enzymatic conversion by FKP into the sugar nucleotide; assay type: biochemical
T1 sequence (Q58T34 1-949): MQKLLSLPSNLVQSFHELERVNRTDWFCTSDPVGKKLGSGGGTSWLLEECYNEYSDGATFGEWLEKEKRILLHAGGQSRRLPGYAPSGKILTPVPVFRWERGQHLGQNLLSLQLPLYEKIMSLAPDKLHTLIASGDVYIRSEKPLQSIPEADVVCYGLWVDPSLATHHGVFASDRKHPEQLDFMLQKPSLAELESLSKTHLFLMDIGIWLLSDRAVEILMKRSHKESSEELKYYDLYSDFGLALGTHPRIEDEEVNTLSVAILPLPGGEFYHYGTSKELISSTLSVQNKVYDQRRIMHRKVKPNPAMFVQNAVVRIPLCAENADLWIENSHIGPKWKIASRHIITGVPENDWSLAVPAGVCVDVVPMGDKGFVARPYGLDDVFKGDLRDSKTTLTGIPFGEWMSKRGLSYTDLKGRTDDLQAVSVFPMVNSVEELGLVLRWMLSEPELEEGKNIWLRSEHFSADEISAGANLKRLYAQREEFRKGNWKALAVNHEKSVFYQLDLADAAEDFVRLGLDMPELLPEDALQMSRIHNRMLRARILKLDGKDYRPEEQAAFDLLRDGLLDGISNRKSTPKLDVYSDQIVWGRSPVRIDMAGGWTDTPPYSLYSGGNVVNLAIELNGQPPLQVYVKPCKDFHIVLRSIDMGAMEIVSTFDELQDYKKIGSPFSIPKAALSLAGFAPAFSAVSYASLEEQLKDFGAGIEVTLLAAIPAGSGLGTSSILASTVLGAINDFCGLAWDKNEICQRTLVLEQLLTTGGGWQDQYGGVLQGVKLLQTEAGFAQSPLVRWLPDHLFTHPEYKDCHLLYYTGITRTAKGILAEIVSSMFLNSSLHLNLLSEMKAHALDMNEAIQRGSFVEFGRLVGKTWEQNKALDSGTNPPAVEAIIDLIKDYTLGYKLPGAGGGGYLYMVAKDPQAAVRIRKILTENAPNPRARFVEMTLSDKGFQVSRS

With `CC(=O)O[C@@H]1O[C@@H](C)[C@@H](OC(C)=O)[C@@H](OC(C)=O)[C@@H]1OC(C)=O` [Ac‐fucose] the “effect on cell surface fucosylation” value (HL-60 cells) was “enhanced fucosylation”.

In the case of `Nc1nc2c(ncn2C2OC(COP(=O)(O)OP(=O)(O)OC3OC(CNC(=O)Cc4ccc5ccccc5c4)C(O)C(O)C3O)C(O)C2O)c(=O)[nH]1` (stereo not shown) [6‐deoxy‐6‐N‐(2‐naphthylacetyl)‐GDP‐fucose], the Km (FUT6) is given as 0.94 µM and the Km (FUT8) is given as 175 µM.

In the case of `[N-]=[N+]=NC[C@@H]1OC(O)[C@@H](F)[C@H](O)[C@@H]1O` (stereo partly shown) [6‐N3‐2‐F‐Fuc], the “conversion by FKP into the corresponding sugar nucleotide product” value [1] is reported as “unable to catalyze the conversion”.
